“Also recorded” adds a separate entry of the source.
Legend:
[1] = tested on: HDFa cells; experiment: Gene expression with Ac-SEQ ID NO: 4-NH2, RT-qPCR in HDFa (Example 17); assay type: cell-based, Human; conditions: 0.01 mg/mL, 24 hours
Experimental: (§1) A stock solution of the peptide was prepared in water at 1 mg/mL. Working solution was freshly prepared at the specified concentration from stock solution in the corresponding supplemented medium.
(§2) RNA (ribonucleic acid) extraction and RT-qPCR (reverse transcription quantitative polymerase chain reaction) were performed. Briefly, HEKa or HDFa cells were seeded in duplicate (n=2) in 6-well plates at a density of 4×10^5 cells/well and maintained at standard culture conditions (106 Medium supplemented with 1% (v/v) LSGS for HDFa cells; Medium Epilife supplemented with 1% (v/v) EDGS and 1% (v/v) penicillin/streptomycin for HEKa cells; 37° C., 95% room humidity, 5% CO2) for 24 hours.
(§3) Then, cells were treated with peptide Ac-SEQ ID NO: 4-NH2 at the concentration of 0.01 mg/mL for 24 hours. Untreated cells were used as basal or negative control.
(§4) Cells were finally lysed, and replicates were pooled together for RNA extraction using Qiagen RNeasy Mini kit following manufacturer's instructions. Purified RNAs were used to generate the corresponding cDNAs (complementary deoxyribonucleic acids) by reverse transcription using a commercial kit High capacity cDNA reverse transcription kit (Applied Biosystems) which served as templates for amplification. RT-qPCR was performed with the panel of appropriate TaqMan assay probes for genes shown in table 10 (plus GAPDH—Glyceraldehyde 3-phosphate dehydrogenase—that was used as housekeeping gene) and 2×gene expression Master Mix using StepOne plus Real-Time PCR instrument. Amplification included 40 cycles of: 15 seconds at 95° C. […] (Annealing and extension) (Arya, M., Shergill, I. S., Williamson, M., Gommersall, L., Arya, N., Patel, H. R. (2005) Basic principles of real-time quantitative PCR. Expert Rev. Mol. Diagn.; 5(2):209-19; and Jozefczuk, J. and Adjaye, J. (2011) Quantitative real-time PCR-based analysis of gene expression. Methods Enzymol. 500; 99-109).
(§5) The obtained data was analysed using the ΔΔCt method, which provides the target gene expression values as fold changes in the treated sample compared with an untreated basal sample. […]

[2] = tested on: HEKa cells; experiment: Gene expression with Ac-SEQ ID NO: 4-NH2, RT-qPCR in HEKa (Example 17); assay type: cell-based, Human; conditions: 0.01 mg/mL, 24 hours
Experimental: as §1, §2, §3
(§6) Cells were finally lysed, and replicates were pooled together for RNA extraction using Qiagen RNeasy Mini kit following manufacturer's instructions. Purified RNAs were used to generate the corresponding cDNAs (complementary deoxyribonucleic acids) by reverse transcription using a commercial kit High capacity cDNA reverse transcription kit (Applied Biosystems) which served as templates for amplification. RT-qPCR was performed with the panel of appropriate TaqMan assay probes for genes shown in table 10 (plus GAPDH—Glyceraldehyde 3-phosphate dehydrogenase—that was used as housekeeping gene) and 2×gene expression Master Mix using StepOne plus Real-Time PCR instrument. Amplification included 40 cycles of: 15 seconds at 95° C. (denaturation) and 1 minute at 60° C. (Annealing and extension) (Arya, M., Shergill, I. S., Williamson, M., Gommersall, L., Arya, N., Patel, H. R. (2005) Basic principles of real-time quantitative PCR. Expert Rev. Mol. Diagn.; 5(2):209-19; and Jozefczuk, J. and Adjaye, J. (2011) Quantitative real-time PCR-based analysis of gene expression. Methods Enzymol. 500; 99-109).
(§7) The obtained data was analysed using the ΔΔCt method, which provides the target gene expression values as fold changes in the treated sample compared with an untreated basal sample. Both samples were normalized with the relative expression of a housekeeping gene GAPDH (Glyceraldehyde 3-phosphate dehydrogenase).

[3] = tested on: recombinant mushroom tyrosinase; experiment: Tyrosinase activity, L-DOPA/dopachrome absorbance (Example 11); assay type: biochemical; conditions: 0.05-2.5 mg/mL (Ac-SEQ ID NO: 4-NH2: 0.005-2.5 mg/mL); 30 minutes preincubation, L-DOPA, 2 hours, absorbance 450 nm; vs non-treated control (100%)
Experimental: Briefly, different concentrations of Ac-SEQ ID NO: 1-NH2 (0.05, 0.25, 0.5 and 2.5 mg/mL), Ac-SEQ ID NO: 2-NH2 (0.05, 0.25, 0.5 and 2.5 mg/mL), Ac-SEQ ID NO: 3-NH2 (0.05, 0.25, 0.5 and 2.5 mg/mL) and Ac-SEQ ID NO: 4-NH2 (0.005, 0.025, 0.05, 0.25, 0.5 and 2.5 mg/mL) and the positive control kojic acid (400 and 800 μM) were incubated with recombinant mushroom tyrosinase for 30 minutes before the addition of L-DOPA (L-3,4 dihidroxiphenilalanine, 2.5 mg/mL in PBS). After 2 hours' reaction at room temperature, the absorbance at 450 nm of each well was determined using the microplate reader Multiskan FC (Thermo Fisher Scientific, Mass., USA), which is directly proportional to the amount of dopachrome in the reaction mixture.

[4] = tested on: IL33; experiment: IL33 expression modulation by RT-qPCR in HEKa cells (Example 7); assay type: cell-based, Human; conditions: 0.01 mg/mL, 24 hours
Experimental: as §1
as §2, with “Briefly, HDFa and” for “Briefly,”, “HEKa” for “HEKa or HDFa”, “hours. Then, cells were treated with peptide Ac-SEQ ID NO: 1-NH2, Ac-SEQ ID NO: 2-NH2 or Ac-SEQ ID NO: 3-NH2 at the concentration of 0.01 mg/mL for 24 hours. Untreated cells were used as basal or negative control.” for “hours.”
as §4, with “the” for “the panel of”, “IL33” for “genes shown in table 10”, “instrument.” for “instrument. Amplification included 40 cycles of: 15 seconds at 95° C.”
as §5

[5] = tested on: HEKa cells; experiment: Expression of genes related to epidermal cell cohesion, RT-qPCR in HEKa (Example 9); assay type: cell-based, Human; conditions: 0.01 mg/mL, 24 hours
Experimental: as §1
RNA (ribonucleic acid) extraction and RT-qPCR (reverse transcription quantitative polymerase chain reaction) were performed. Briefly, HEKa cells were seeded in duplicate (n=2) in 6-well plates at a density of 4×10^5 cells/well and maintained at standard culture conditions (Medium Epilife supplemented with 1% (v/v) EDGS and 1% (v/v) penicillin/streptomycin; 37° C., 95% room humidity, 5% CO2) for 24 hours.
Then, cells were treated with peptide Ac-SEQ ID NO: 1-NH2, Ac-SEQ ID NO: 2-NH2 or Ac-SEQ ID NO: 3-NH2 at the concentration of 0.01 mg/mL for 24 hours. Untreated cells were used as basal or negative control.
as §6, with “table 1” for “table 10”
as §7

[6] = tested on: HDFa cells; experiment: Expression of genes related with collagen production and extracellular matrix, RT-qPCR in HDFa (Example 10); assay type: cell-based, Human; conditions: 0.01 mg/mL, 24 hours
Experimental: as §1
RNA (ribonucleic acid) extraction and RT-qPCR (reverse transcription quantitative polymerase chain reaction) were performed. Briefly, HDFa cells were seeded in duplicate (n=2) in 6-well plates at a density of 4×10^5 cells/well and maintained at standard culture conditions (106 Medium supplemented with 1% (v/v) LSGS; 37° C., 95% room humidity, 5% CO2) for 24 hours. Then, cells were treated with peptide Ac-SEQ ID NO: 1-NH2 at the concentration of 0.01 mg/mL for 24 and 48 hours. Untreated cells were used as basal or negative control.
as §6, with “table 5” for “table 10”
as §7

Substance | tyrosinase activity [3] | IL33 gene expression, fold change in treated cells with regard to basal control [4] [fold change] | CLDN4 Fold change between treated cells and basal control [5] [Fold change] | OCLN Fold change between treated cells and basal control [5] [Fold change] | PCDH1 Fold change between treated cells and basal control [5] [Fold change] | PKP2 Fold change between treated cells and basal control [5] [Fold change] | TJP1 Fold change between treated cells and basal control [5] [Fold change] | FBN1 Fold change between treated cells and basal control [6] [Fold change] | MMP1 Fold change between treated cells and basal control [6] [Fold change] | also measured
Ac-Arg-Arg-Gln-Met-Glu-Glu-NH2 (Ac-RRQMEE-NH2) [Ac-SEQ ID NO: 4-NH2, a peptide not of the present invention, very similar comparison peptide] | did not inhibit tyrosinase activity in any of the concentrations tested; also recorded: from concentration 0.05 mg/mL and onwards it increased tyrosinase activity in a dose-dependent manner |  |  |  |  |  |  |  |  | COL3A1 Fold change between treated cells and basal control [1]: −1.28 Fold change; IL1RL1 Fold change between treated cells and basal control [1]: −1.12 Fold change; TIMP2 Fold change between treated cells and basal control [1]: −1.26 Fold change; CDSN Fold change between treated cells and basal control [2]: −1.04 Fold change; IL33 Fold change between treated cells and basal control [2]: −1.01 Fold change; OCLN Fold change between treated cells and basal control [2]: −1.08 Fold change; SIGIRR Fold change between treated cells and basal control [2]: −1.49 Fold change; SLC2A1 Fold change between treated cells and basal control [2]: −1.07 Fold change; TJP1 Fold change between treated cells and basal control [2]: −1.04 Fold change
Ac-Arg-Glu-Gln-Met-Arg-Arg-NH2 (Ac-REQMRR-NH2) [Ac-SEQ ID NO: 3-NH2] | showed a dose-dependent inhibition of tyrosinase activity at concentrations of 0.25 mg/mL and higher | −3.93 | 1.90 | 1.99 | 2.48 | 1.86 | 1.43 | 1.29 | −1.46 | CLDN1 Fold change between treated cells and basal control [5]: 1.5 Fold change; DSC1 Fold change between treated cells and basal control [5]: 1.41 Fold change; DSC2 Fold change between treated cells and basal control [5]: 1.43 Fold change; DSP Fold change between treated cells and basal control [5]: 1.28 Fold change; JUP Fold change between treated cells and basal control [5]: 1.23 Fold change; PPL Fold change between treated cells and basal control [5]: 1.52 Fold change; MMP3 Fold change between treated cells and basal control [6]: −1.30 Fold change
Ac-Met-Arg-Arg-Glu-Gln-Arg-NH2 (Ac-MRREQR-NH2) [Ac-SEQ ID NO: 2-NH2] | showed inhibition of tyrosinase activity in a dose-dependent manner from 0.05 mg/mL and onwards | −3.77 | 1.51 | 1.58 | 2.14 | 1.42 | 1.34 | 1.20 | −1.21 | 

Reference: patent US20220389058A1, “PEPTIDES AND COMPOSITIONS FOR USE IN COSMETICS AND MEDICINE” (LIPOTRUE, S.L., priority 2019, published 2022)
